PubChem BioAssay AID434987 (Southern Research Specialized Biocontainment Screening …, 2010)
The source made the active and inactive calls. How the calls were made is not given here.

Test system: M. tuberculosis H37Rv growth inhibition with meropenem
Experiment: dose response, H37Rv, with and without meropenem (AID 434987);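 further: growth over 7 days at 37 °C before Alamar Blue read on day 9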
[1] = M. tuberculosis H37Rv growth inhibition, measured here: IC50 without meropenem
[2] = M. tuberculosis H37Rv growth inhibition, measured here: IC90 without meropenem
[3] = measured here: IC90 with meropenem

SMILES	IC50	IC50 [1] [µM]	IC90 [2] [µM]	IC90 [3] [µM]
COc1ccc(C(=O)Nc2ccccc2C(=O)NC(C(=O)NCc2ccco2)C(C)C)cc1 (configuration not stated)	> 100 µM (inactive)	> 100	> 100	> 100
Cc1ccc(Nc2nc(N)nc(CC#N)n2)cc1	61.3 µM (inactive)	75.6	> 100	92.7
O=C(CSc1nnc(-c2cnccn2)n1Cc1ccco1)Nc1ccc(Br)cc1	44.2 µM (inactive)	> 100	> 100	> 100
